Results as given in paper PMC7321218, “Synthetic (E)-3-Phenyl-5-(phenylamino)-2-styryl-1,3,4-thiadiazol-3-ium Chloride Derivatives as Promising Chemotherapy Agents on Cell Lines Infected with HTLV-1” (Molecules, 2020).
“Also recorded” adds a separate entry of the source.

How the values were obtained:
[1] = target: T1, human serum albumin (HSA) (Homo sapiens, UniProt P02768); test: Time-resolved fluorescence decay of HSA; format: binding; conditions: HSA 1.00 × 10^−5 M with 1.32 × 10^−5 M compound, ca 298 K
T1 construct: three analogous domains (I, II, and III) having amino acid residues of 1–195, 196–383, and 384–585
T1 sequence (P02768 25-609): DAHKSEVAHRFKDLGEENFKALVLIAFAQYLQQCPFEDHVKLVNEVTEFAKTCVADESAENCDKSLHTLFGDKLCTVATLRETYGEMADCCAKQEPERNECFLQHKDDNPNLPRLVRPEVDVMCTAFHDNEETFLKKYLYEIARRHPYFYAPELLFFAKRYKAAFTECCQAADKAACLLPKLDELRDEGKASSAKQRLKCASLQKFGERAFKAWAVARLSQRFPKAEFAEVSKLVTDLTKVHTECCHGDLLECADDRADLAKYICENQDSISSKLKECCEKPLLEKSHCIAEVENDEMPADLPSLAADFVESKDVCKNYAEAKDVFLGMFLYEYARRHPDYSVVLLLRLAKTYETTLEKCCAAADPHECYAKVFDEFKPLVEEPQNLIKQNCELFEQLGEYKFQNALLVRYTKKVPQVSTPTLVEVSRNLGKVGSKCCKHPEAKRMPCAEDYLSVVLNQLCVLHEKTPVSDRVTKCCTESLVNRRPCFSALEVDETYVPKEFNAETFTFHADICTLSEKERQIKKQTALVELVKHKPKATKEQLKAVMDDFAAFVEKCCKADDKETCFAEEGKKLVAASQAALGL
Experimental: The time-resolved fluorescence decay of a 3.0 mL solution of HSA (1.00 × 10^−5 M, in phosphate buffer solution-PBS) was measured in the absence and presence of the maximum concentration of each mesoionic used in the steady-state fluorescence studies (1.32 × 10^−5 M) at room temperature (ca 298 K).

[2] = target: T1, human serum albumin (HSA); test: Circular dichroism of HSA (secondary structure); format: binding; conditions: CD, 310 K, 1.32 × 10^−5 M compound; for α-helix % of HSA at 222 nm: HSA alone 80.1%; for α-helix % of HSA at 208 nm: HSA alone 86.7%
Experimental: The CD spectra were recorded in the 200–250 nm range at 310 K for free serum albumin (1.00 × 10^−6 M) and for HSA with the higher concentration of each mesoionic used in the steady-state fluorescence studies (1.32 × 10^−5 M). Each spectrum was taken on the average of three scans. The obtained data were further converted into mean residue ellipticity (MRE) according to Equation (6):(6) MRE=θ/(10.n.l.Cp) where θ is the observed ellipticity (mdeg); n is the number of amino acid residues (585 to HSA), l is the length of the optical cuvette (1.0 cm), and Cp is the molar concentration of HSA (1.00 × 10^−6 M). The 5a–d induced helical content perturbation at 208 and 222 nm were calculated using Equation (7):(7) (A) α−helix%(−MRE208−4000)/(33000−4000)×100(B) α−helix%(−MRE222−2340)/(30300)×100 where MRE208 and MRE222 are the significant molar residual ellipticities (deg.cm^2/dmol) at 208 nm and 222 nm, respectively.

Jurkat cells [3] = test: MTT cell viability assay, Jurkat cells; format: cell-based; conditions: Homo sapiens, 72 h incubation
Experimental: (§1) The 1 × 10^5 cells/mL were incubated with or without compounds 5a, 5b, 5c, 5d or DMSO (Sigma-Aldrich/Merck, St. Louis, MO, USA) at 37 °C in humidified atmosphere with a 5% CO2. After 72 h, the cellular viability was assessed using 5 mg/mL of 3-(4,5-dimethylthiazol-2-yl)-2,5-diphenyltetrazolium bromide (MTT, Sigma-Aldrich/Merck). Cells were incubated for 3 h, centrifuged, and formazan crystal was dissolved with DMSO. Plates were read on a Paradigma® spectrofluorometer (Molecular Devices, San Jose, CA, USA) at a 490 nm wavelength. Cell death was also evaluated using Propidium Iodide (Biolegend) exclusion after a 24 h culture under the same conditions described above. The fluorescence was examined by FACSCalibus flow cytometry (BD) and 10,000 events were acquired for the experimental data. Analysis was accomplished using Summit V4.0 or FlowJo software (Becton, Dickingson and Company, Santa Barbara, CA, USA).
(§2) Statistical analysis was performed by one-way analysis of variance (ANOVA) and means were compared using a Tukey post-test. The IC50 values were obtained using nonlinear regression. Data were analyzed using GraphPad Prism-5 software (GraphPad software, San Diego, CA, USA), and p ≤ 0.05 was considered statistically significant.

[4] = test system: MT2 cells (HTLV-1-infected cell line); test: MTT cell viability assay, MT2 cells; format: cell-based; conditions: Homo sapiens, 72 h incubation
Experimental: as §1, §2

[5] = target: T1, human serum albumin (HSA); test: Zeta potential of HSA (surface perturbation); format: binding; conditions: for ζ (zeta potential of HSA): HSA with 1.32 × 10^−5 M compound, HSA alone −9.15 ± 1.79; for Conductance: ZP measurement, HSA with compound
Experimental: All zeta potential (ZP) measurements were performed with 10 runs at 298 K and results were reported in terms of ZP ± SD. The ZP was measured for the HSA solution (1.0 × 10^−5 M in PBS solution) without and in the presence of the mesoionic compounds at the maximum concentration used in the steady-state fluorescence experiments (1.32 × 10^−5 M) at room temperature (ca. 298 K).

[6] = test system: C91/PL cells (HTLV-1-infected); test: MTT cell viability assay, C91/PL cells; format: cell-based; conditions: 72 h incubation
Experimental: as §1, §2

[7] = target: T1, human serum albumin (HSA); test: Steady-state fluorescence quenching of HSA; format: binding; conditions: for Kd: Ka (modified Stern–Volmer binding constant); for ΔS°: van't Hoff, 296–310 K
Experimental: The steady-state fluorescence spectra were measured in the 290–450 nm range, at 296, 303, and 310 K, with the excitation wavelength at λ = 295 nm. To a 3.0 mL solution containing an appropriate concentration of HSA (1.00 × 10^−5 M), successive aliquots from a stock solution of each mesoionic under study (1.00 × 10^−3 M in DMSO) were added, with final concentrations of 0.17, 0.33, 0.50, 0.66, 0.83, 0.99, 1.15, and 1.32 × 10^−5 M. The addition was done manually by using a micro syringe. The inner filter correction for the observed steady-state fluorescence of HSA:mesoionic compounds was done in order to compensate for the absorption value of 5a–d at the excitation and emission wavelengths (295 and 340 nm, respectively) when applying Equation (1):(1) Fcor=Fobs10^[Aexc+Aem/2] where Fcor and Fobs are the corrected and observed steady-state fluorescence intensity values, respectively, while Aex and Aem represent absorbance values for each ligand at the excitation and emission wavelengths (λ = 295 and 340 nm, respectively).
The binding properties of each ligand toward HSA—Stern–Volmer quenching constant (KSV), bimolecular quenching rate constant (kq), modified Stern–Volmer binding constant (Ka), enthalpy change (ΔH°), entropy change (ΔS°), and Gibbs’ free energy change (ΔG°)—were calculated from the steady-state fluorescence quenching data according to Equations (2)–(5):(2) F0/F=1+kqτ0[Q]=1+KSV[Q] (3) F0/F0−F=1/f[Q]Ka+1/f (4) lnKa=−ΔH^0/RT+ΔS^0/R (5) ΔG^0=ΔH^0−TΔS^0 where F0 and F are the steady-state fluorescence intensities of HSA in the absence and presence of mesoionics, respectively. [Q] and τ0 are the ligand concentration and fluorescence lifetime, respectively, of the fluorophore in the absence of quencher (5.54 × 10^−9 s—experimental data, see Section 2.3.1). T, ƒ, and R are the temperature (296, 303, and 310 K), fraction of the initial fluorescence intensity that corresponds to fluorophore that is accessible to the quencher (f ≈ 1.0), and gas constant (8.3145 J/mol.K), respectively.

MT2 cells = test: Necrosis by propidium iodide labeling (flow cytometry), MT2 cells; format: cell-based; conditions: 25 µM, 24 h, PI labeling
Experimental: as §1

Jurkat cells [8] = test: Necrosis by propidium iodide labeling (flow cytometry), Jurkat cells; format: cell-based, human; conditions: 25 µM, 24 h, PI labeling
Experimental: as §1

salmon DNA = test: DNA interaction assay (fluorescence emission); format: binding; conditions: 25 µM compound, DNA 2, 10 and 100 ng/mL
Experimental: Fluorescence emission spectroscopic titration experiments of DNA were conducted in the absence and presence of a constant concentration of the mesoionic compounds 5a–d. […] After that, the fluorescence emission was recorded after 1 h of DNA incubation with or without compounds 5a–d (25 µM) or DMSO, over a wavelength range of 300 to 600 nm in a Tris-acetate-EDTA buffer (Promega) at room temperature. The slit widths for excitation and emission were set to 5.0 nm. The fluorescence was examined using a F4500 fluorometer (Hitachi, New Jersey, NJ, USA).

C91/PL cells = test: Necrosis by propidium iodide labeling (flow cytometry), C91/PL cells; format: cell-based; conditions: 25 µM, 24 h, PI labeling
Experimental: as §1

Structure (SMILES) | Relative % of τ1 [1] [%] | Relative % of τ2 [1] [%] | τ1 (HSA fluorescence lifetime) [1] [ns] | τ2 (HSA fluorescence lifetime) [1] [ns] | α-helix % of HSA at 222 nm [2] [%] | α-helix % of HSA at 208 nm [2] [%] | IC50 (Jurkat cells [3]) [µM] | IC50 [4] [µM] | ζ (zeta potential of HSA) [5] [mV] | Conductance [5] | IC50 [6] [µM] | KSV (Stern–Volmer quenching constant) ([7]; 296 K) | kq (bimolecular quenching rate constant) ([7]; 296 K) [M⁻¹ s⁻¹] | ΔG° ([7]; 296 K) [kcal/mol] | KSV (Stern–Volmer quenching constant) ([7]; 303 K) | kq (bimolecular quenching rate constant) ([7]; 303 K) [M⁻¹ s⁻¹] | ΔG° ([7]; 303 K) [kcal/mol] | KSV (Stern–Volmer quenching constant) ([7]; 310 K) | kq (bimolecular quenching rate constant) ([7]; 310 K) [M⁻¹ s⁻¹] | ΔG° ([7]; 310 K) [kcal/mol] | also measured
Cc1ccc(Nc2n[n+](-c3ccccc3)c(/C=C/c3ccccc3)s2)cc1.[Cl-] [5a, (E)-3-Phenyl-5-(4′-methylphenylamino)-2-styryl-1,3,4-thiadiazol-3-ium chloride] | 26.4 | 73.6 | 1.61 ± 0.13 | 5.38 ± 0.13 | 78.5 | 84.0 | 2.15 | 1.51 | −8.62 ± 1.40 | 29,615 µs | 2.82 | 1.19 ± 0.03 × 10^5 M^−1 | 2.15e+13 | -6.62 | 1.20 ± 0.03 × 10^5 M^−1 | 2.16e+13 | -6.76 | 1.21 ± 0.03 × 10^5 M^−1 | 2.18e+13 | -6.91 | Kd ([7]; 296 K): 13 µM; Kd ([7]; 303 K): 13.3 µM; Kd ([7]; 310 K): 13.7 µM; ΔS° [7]: 8.46 ± 0.05 × 10^−2 kJ.mol^−1K^−1
COc1ccc(Nc2n[n+](-c3ccccc3)c(/C=C/c3ccccc3)s2)cc1.[Cl-] [5b, (E)-3-Phenyl-5-(4′-methoxyphenylamino)-2-styryl-1,3,4-thiadiazol-3-ium chloride] | 23.9 | 76.1 | 1.66 ± 0.12 | 5.25 ± 0.11 | 77.3 | 82.4 | 1.74 | 5.09 | −8.55 ± 1.46 | 29,642 µs | 4.5 | 1.10 ± 0.02 × 10^5 M^−1 | 1.99e+13 | -6.69 | 1.14 ± 0.03 × 10^5 M^−1 | 2.06e+13 | -6.84 | 1.15 ± 0.03 × 10^5 M^−1 | 2.07e+13 | -6.98 | necrotic cells (MT2 cells): 35.34 ± 7.80%; necrotic cells (Jurkat cells [8]): 75.37 ± 3.63%; interaction with DNA strands (salmon DNA): can interact with the DNA strands; also recorded: could interact with DNA strands; Kd ([7]; 296 K): 11.7 µM; Kd ([7]; 303 K): 11.8 µM; Kd ([7]; 310 K): 12.1 µM; ΔS° [7]: 8.81 ± 0.06 × 10^−2 kJ.mol^−1K^−1; necrotic cells (C91/PL cells): 33.75 ± 1.65%
Clc1ccc(Nc2n[n+](-c3ccccc3)c(/C=C/c3ccccc3)s2)cc1.[Cl-] [5c, (E)-3-Phenyl-5-(4′-chlorophenylamino)-2-styryl-1,3,4-thiadiazol-3-ium chloride] | 33.0 | 67.0 | 1.68 ± 0.11 | 5.66 ± 0.16 | 78.8 | 83.8 | 5.6 | 6.15 | −8.77 ± 1.52 | 29,622 µs | 4.5 | 1.30 ± 0.03 × 10^5 M^−1 | 2.35e+13 | -6.72 | 1.36 ± 0.04 × 10^5 M^−1 | 2.45e+13 | -6.91 | 1.40 ± 0.03 × 10^5 M^−1 | 2.53e+13 | -7.1 | Kd ([7]; 296 K): 11.7 µM; Kd ([7]; 303 K): 11 µM; Kd ([7]; 310 K): 10.4 µM; ΔS° [7]: 11.6 ± 0.1 × 10^−2 kJ.mol^−1K^−1
Brc1ccc(Nc2n[n+](-c3ccccc3)c(/C=C/c3ccccc3)s2)cc1.[Cl-] [5d, (E)-3-Phenyl-5-(4′-bromophenylamino)-2-styryl-1,3,4-thiadiazol-3-ium chloride] | 29.8 | 70.2 | 1.65 ± 0.10 | 5.37 ± 0.13 | 77.7 | 82.0 | 2.27 | 7.7 | −8.69 ± 1.50 | 29,638 µs | 5.25 | 1.45 ± 0.02 × 10^5 M^−1 | 2.61e+13 | -6.67 | 1.54 ± 0.03 × 10^5 M^−1 | 2.79e+13 | -6.86 | 1.60 ± 0.03 × 10^5 M^−1 | 2.89e+13 | -7.03 | Kd ([7]; 296 K): 11.5 µM; Kd ([7]; 303 K): 11.1 µM; Kd ([7]; 310 K): 10.8 µM; ΔS° [7]: 10.6 ± 0.1 × 10^−2 kJ.mol^−1K^−1
